Experimental data reported in PubChem BioAssay (NCI).
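Five concentrations, 48 hours, 96-well plates. TGI marks complete inhibition of growth.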

Tests used:
Experiment in all cases: NCI-60 cell line screen, 48 h
A549 NSCLC = test system: A549 NSCLC
MDA-MB-435 = test system: MDA-MB-435
TK-10 renal = test system: TK-10 renal
MCF7 breast = test system: MCF7 breast
MDA-MB-231 breast = test system: MDA-MB-231 breast
COLO 205 colon = test system: COLO 205 colon
HT29 colon = test system: HT29 colon
CCRF-CEM leukemia = test system: CCRF-CEM leukemia
NCI-H23 lung = test system: NCI-H23 lung
SN12C renal = test system: SN12C renal
786-0 renal = test system: 786-0 renal
BT-549 breast = test system: BT-549 breast

Compound | TGI (A549 NSCLC) | TGI (MDA-MB-435) | TGI (TK-10 renal) | TGI (MCF7 breast) | TGI (MDA-MB-231 breast) | TGI (COLO 205 colon) | TGI (HT29 colon) | TGI (CCRF-CEM leukemia) | TGI (NCI-H23 lung) | TGI (SN12C renal) | TGI (786-0 renal) | TGI (BT-549 breast)
CC(C)c1ccc2c(c1)C=C1OC(=O)[C@]3(C)CCC[C@@]2(C)C13 (some centres undefined) | > 100 µM | > 100 µM | > 100 µM | > 100 µM | > 100 µM | > 100 µM | > 100 µM | > 100 µM | > 100 µM | > 100 µM | > 100 µM | > 100 µM
NC(N)=NS(=O)(=O)c1ccc(Nc2c3ccccc3nc3c(C(=O)NC(CO)(CO)CO)cccc23)cc1 | 38.2 µM | > 100 µM | 94.5 µM | 95.3 µM | > 100 µM | 51.7 µM | 61.1 µM | 54.8 µM | > 100 µM | > 100 µM | 46.2 µM | 36.7 µM
CC(=O)N1C(C(=O)NNc2ccccc2)CSC1c1ccccc1 (centres undefined) | > 100 µM | > 100 µM | > 100 µM | > 100 µM | > 100 µM | > 100 µM | > 100 µM | > 100 µM | > 100 µM | > 100 µM | > 100 µM | > 100 µM
O=c1c2ccccc2c2c1c1c3ccccc3c(=O)c1c1c3ccccc3c(=O)c21 | > 100 µM | > 100 µM | > 100 µM | > 100 µM | > 100 µM | > 100 µM | > 100 µM | > 100 µM | > 100 µM | > 100 µM | > 100 µM | > 100 µM
O=C(N/N=C/C=C/c1ccc([N+](=O)[O-])o1)c1ccc(Br)s1 | > 100 µM | 83.6 µM | 46.5 µM | > 100 µM | 64.9 µM | 33.3 µM | 34.2 µM | > 100 µM | 33.5 µM | 70.5 µM | 47.5 µM | 51.8 µM
CC(=O)Nc1ccc(S(=O)(=O)[N-]C2C(=O)c3ccccc3C(=O)C2[n+]2ccccc2)cc1 (centres undefined) | 39.7 µM | 14.9 µM | > 100 µM | 31.8 µM | > 100 µM | > 100 µM | > 100 µM | 40.5 µM | 21.5 µM | > 100 µM | > 100 µM | 13.4 µM
O=C1OC2c3ccccc3C(=O)C2(c2ccccc2)N1c1ccccc1 (centres undefined) | > 200 µM | > 200 µM | > 200 µM | > 200 µM | > 200 µM | > 200 µM | > 200 µM | > 200 µM | > 200 µM | > 200 µM | > 200 µM | > 200 µM
COc1ccc(C(=O)/C=C/c2ccc(OCC(=O)O)cc2)cc1 | > 100 µM | > 100 µM | > 100 µM | > 100 µM | > 100 µM | > 100 µM | > 100 µM | > 100 µM | > 100 µM | > 100 µM | > 100 µM | > 100 µM
O=C(O)CSc1nnc(CCCCCCCCc2nnc(SCC(=O)O)o2)o1 | > 100 µM | > 100 µM | > 100 µM | > 100 µM | > 100 µM | > 100 µM | > 100 µM | > 100 µM | > 100 µM | > 100 µM | > 100 µM | > 100 µM
OCCCCn1cc(Cn2ncc3c(SCc4ccccc4)ncnc32)nn1 | > 100 µM | > 100 µM | > 100 µM | > 100 µM | > 100 µM | 91.4 µM | > 100 µM | > 100 µM | > 100 µM | > 100 µM | > 100 µM | > 100 µM
COc1cc(-c2c3c([nH]c(=O)c2C#N)-c2cc([N+](=O)[O-])ccc2CCC3)cc(OC)c1OC | 81.8 µM | > 100 µM | > 100 µM | 44.5 µM | 79.2 µM | 43.3 µM | > 100 µM | > 100 µM | 45.8 µM | 46.7 µM | 65.2 µM | 61.3 µM
CC(C)CCNC(=O)c1ccc(CNC(=O)/C=C/c2csc(-c3ccccc3)n2)cc1 | > 100 µM | > 100 µM | > 100 µM | > 100 µM | > 100 µM | > 100 µM | > 100 µM | > 100 µM | > 100 µM | > 100 µM | > 100 µM | > 100 µM
